According to patent US20240000721A1, “COMPOSITIONS FOR REDUCTION OF OXIDATIVE STRESS, IMPROVEMENT TO THE IMMUNE SYSTEM, PROMOTION OF HEALTHY CARTILAGE AND/OR ALLEVIATION OF PAIN ACCOMPANYING INFLAMMATORY DISEASES IN RUMINANTS” (DSM IP Assets B.V., priority 2018, published 2024):

System: Brahman steers (Bos indicus)
Assay: Rumen metabolites in rumen fluid of fistulated Brahman steers, quantified by NMR
Format: in vivo
Conditions: for Dimethylsulfone in rumen fluid / Trimethylamine in rumen fluid: rumen fluid 3 h post feeding
Description: Eight fistulated Brahman steers (Bos indicus) were randomly allocated to two groups (4 animals per group) and received a forage ad libitum diet (Rhode grass hay (Chloris […]), chemical composition: DM, 917 g/kg fresh matter; in g/kg of DM: OM, 806; CP, 169; NDF, 661; ADF, 359; ADL, 46; ash, 116 and GE 17.38 MJ/kg). […] Animals were adapted to the diet over a 21 d period. After that initial period, experimental animals were placed into individual pens in an animal house for the measurement of intakes (10 d) and were treated with cyclodextrin (2 g/100 kg LW) and molasses (60 mL/d). On the last 2 days animals were placed into open-circuit respiration chambers for collection of rumen samples. […] PDMN was provided to the animals mixed with molasses (60 mL/day, molasses were previously diluted in water: 1:4 water:molasses) and mixed with the hay at three different times: 0 h, 3 h and 5 h after the feed was offered. […] On days 20 and 21 of treatment both groups were placed in open-circuit respiration chambers for rumen fluid collection. Rumen fluid samples (approx. 60 mL per animal) were collected using a probe with 2 layers of cheesecloth through the cannula of the animal at 3 h post feeding, during confinement in respiration chambers to determine rumen metabolites.

[1] = 21 days treatment compared with control period

## ClC(Cl)Cl [Chloroform, chloroform, reference compound]
1.6 g chloroform-CD/100 kg LW for 21 days, control period 21
  Dimethylsulfone in rumen fluid: 80 μmol/L rumen fluid
1.6 g chloroform-CD/100 kg LW for 21 days, control period 564
  Trimethylamine in rumen fluid: 828 μmol/L rumen fluid
[1]
  Effect on the methyl donor dimethylsulfone and triethylamine in rumen fluid (in words): statistically significant increase

## O=[N+]([O-])OCCCO [PDMN, 1,3-propanediol mononitrate]
2.5 g PDMN/animal/day (10% on silicon dioxide) for 21 days, control period 20
  Dimethylsulfone in rumen fluid: 113 μmol/L rumen fluid
2.5 g PDMN/animal/day (10% on silicon dioxide) for 21 days, control period 334
  Trimethylamine in rumen fluid: 1242 μmol/L rumen fluid
[1]
  Effect on dimethylsulfone and trimethylamine in rumen fluid (in words): statistically significant increase
21 days treatment compared with control period, listed as propanediolediol mononitrate
  Effect on dimethylsulfone and trimethylamine in rumen fluid (in words): particularly effective
